Data as given in ChEMBL document CHEMBL1146937, “Nitrobenzylcarbamate prodrugs of cytotoxic acridines for potential use with nitroreductase gene-directed enzyme prodrug therapy” (Bioorg Med Chem Lett, 2006).
Activity calls are given as the source filed them. The rule behind the calls is not given here.

Key:
Format in all cases: functional, cell-based
HT-29 = assay: Antiproliferative activity against HT29 cell line; conditions: Homo sapiens
A549 = assay: Antiproliferative activity against A549 cell line; conditions: Homo sapiens
V79 = assay: Antiproliferative activity against V79 cell line; conditions: Cricetulus griseus
L1210 = assay: Antiproliferative activity against L1210 cell line; conditions: Mus musculus

SMILES | IC50 (HT-29) [µM] | IC50 (A549) [µM] | IC50 (V79) [µM] | Activity (L1210)
O=C(Nc1ccc2cc3ccccc3nc2c1COC(=O)OCc1ccc([N+](=O)[O-])cc1)OCc1ccc([N+](=O)[O-])cc1 | 9 | > 10 | > 10 | 
Nc1ccc2cc3ccccc3nc2c1CO |  |  |  | Active
CCOC(=O)Nc1ccc2cc3ccccc3nc2c1COC(=O)OCC | 4.5 |  |  | 
O=C(Nc1ccc2cc3ccccc3nc2c1CO)OCc1ccc([N+](=O)[O-])cc1 | 2.5 | 3.5 | 3.5 | 
